Assay results as given in patent publication US20210093582A1, “COMPOSITIONS FOR REDUCING TRIMETHYLAMINE-N-OXIDE AND RELATED THERAPEUTIC APPLICATIONS” (priority 2019, published 2021).

Key:
Format in all cases: in vivo, C57BL/6 (B6) mice
[1] = system: TNF-α; experiment: Aortic vascular inflammation gene expression by qPCR (TNF-α); conditions: female B6 mice, 1.3% carnitine water, 6 weeks; mRNA normalized to GAPDH
Experimental: (§1) Six-week-old female C57BL/6 (B6) mice were purchased from BioLASCO (Taipei, Taiwan) and were acclimatized for 1 week. Mice were fed ad libitum with experimental diets, LabDiet Rodent 5001. The animal use protocol listed below has been reviewed and approved by the Institutional Animal Care and Use Committee (NTU105-EL-00115). In the experiment, mice were randomly divided into four groups: normal diet, 1.3% carnitine water, 1.3% carnitine water with 0.05% pterostilbene diet (around 250 mg/kg/day), and 1.3% carnitine water with antibiotic cocktail for 6 weeks. Mice received a cocktail of oral antibiotics (vancomycin 500 mg/L, metronidazole 1 g/L, neomycin 1 g/L, and ampicillin 1 g/L in drinking water) for 6 weeks. […] At the end of the six-week study, mice were euthanized by CO2 asphyxiation.
(§2) Hepatic and aortic RNA was extracted using TRIzol reagent. Phase separation was performed by adding 200 μl chloroform/1 mlTRIzol. […]
(§3) Quality of RNA and RNA concentrations were then quantified using NanoDrop 1000 spectrophotometer. […]
(§4) mRNA levels were determined by quantitative real-time PCR usingStepOnePlus Real-Time PCR system and SYBR Green master mix as compared to constitutively expressed gene (GAPDH) using the relative quantification method (ΔΔCt), Primer sequences for SYBR Green reactions were designed and synthesized by Mission Biotech.

[2] = system: VCAM-1; experiment: Aortic vascular inflammation gene expression by qPCR (VCAM-1); conditions: female B6 mice, 1.3% carnitine water, 6 weeks; mRNA normalized to GAPDH
Experimental: as §1, §2, §3, §4

[3] = system: FMO3; experiment: Hepatic FMO3 mRNA expression by RT-qPCR; conditions: female B6 mice, 6 weeks; normalized to GAPDH
Experimental: as §1, §2, §3, §4

[4] = system: cecal microbiota; experiment: Cecal microbiota composition by 16S rRNA gene sequencing; conditions: mouse cecum, 6 weeks
Experimental: as §1
Microbial community composition was assessed by pyrosequencing 16S rRNA genes derived from mouse cecum (n=3 for each group). Total DNA was isolated and purified using InnuSPEED Stool DNA kit according to the manufacturer's instructions. The quality of DNA samples was assessed by NanoDrop 1000 spectrophotometer. DNA samples were sent to Biotools Co., Ltd.for 16S rRNA gene amplification, sequence library construction and sequencing. […] The library DNA was sequenced by IlluminaHiSeq2500 platform, and paired-end reads (250 bp) were generated.

[5] = Plasma TMAO level by LC-MS/MS; conditions: female B6 mice, 1.3% carnitine water, 6 weeks
Experimental: as §1
LC-MS/MS was used to quantify plasma L-carnitine and TMAO in positive MRM mode, with the instrument water UPLC system (Acquity, Waters, Mildford, Mass., USA) and triple quadrupole mass spectrometer (TQS, Waters Micromass, Manchester, UK). […]
The MS parameters were set as follow: 100° C. for the source temperature, 650° C. for the desolvation temperature, 2 L/h for the cone gas flow, 600 L/h for the desolvation gas flow and 1500 V for the capillary voltage. Cone voltage was set a 10 V. Concentrations of each analyte in samples were determined by calibration curves.

[6] = system: E-selectin; experiment: Aortic vascular inflammation gene expression by qPCR (E-selectin); conditions: female B6 mice, 1.3% carnitine water, 6 weeks; mRNA normalized to GAPDH
Experimental: as §1, §2, §3, §4

With `C[N+](C)(C)C[C@H](O)CC(=O)[O-]` [Carnitine, L-carnitine] the “expression of TNF-α in aortas” value [1] was “significantly enhanced”, the “expression of VCAM-1 in aortas” value [2] was “significantly enhanced” and the “hepatic FMO3 mRNA expression level” value [3] was “approximately three-fold increase”. For the same compound, the “Erysipelotrichia (Turibacter) proportion / relative abundance” value [4] was “increase”, the “increase in circulating TMAO level compared to ND group” value [5] was “up to 8 folds” and the “expression of E-selectin in aortas” value [6] was “significantly enhanced”.
